According to BigSolDB 2.1:

O=C(O)c1cccc(C(=O)O)c1
solubility (mole fraction)
Details	283.15 K	288.15 K	293.15 K	298.15 K	303.15 K	308.15 K	313.15 K	318.15 K	323.15 K
in ethanol	0.00328	0.00369	0.00406	0.00451	0.005	0.00559	0.00616	0.00682	0.00752
in methanol	0.00269	0.00304	0.00342	0.00376	0.00422	0.00473	0.00527	0.0059	0.00654
in n-propanol	0.00287	0.0032	0.00362	0.00415	0.00472	0.00533	0.00603	0.00689	0.00774
